The target of the assay is T1, mouse GSK3β (Mus musculus, UniProt Q9WV60).
T1 construct: Immunoblotting based endogenous degradation profile of KH1 (24) in mouse embryonic fibroblast (MEF) cells; host or cells: MEF cells
The assay can be described thus: Immunoblot degradation in mouse embryonic fibroblast (MEF) cells, 4 h. The format is cell-based. As for the experimental part:
HEK293, HAP1, HAP1 CRBN KO and SH-SY5Y cells were plated in either 6 cm plates or 6-well plates at varying densities (0.5–0.7 × 10^6 cells per plate or wells), and MEF cells were plated in 10 cm plates (1–1.2 × 10^6 cells per plate) depending on experimental set up in respective culturing condition as described above. Stock solutions of compounds were prepared as 10 mM in DMSO (Sigma–Aldrich). Working dilutions were made up fresh in DMSO and culturing media or differentiation media was refreshed prior to any compound treatments. For mode of action studies, cells were pre-treated with inhibitors for 2 h: 1 µM MG132 (Merck, 474790-5 mg), 1 µM MLN4924 (Merck, 5054770001) or 1 µM GSK3 inhibitor (compound 29), before treating with PROTACs for 2, 4 or 24 h as indicated in figure legends. Cells were washed twice with ice-cold PBS (Gibco), harvested in PBS and pelleted, cells were resuspended in RIPA buffer supplemented with complete EDTA-free protease inhibitor cocktail (Roche,11873580001, 1/10 mL) and phosSTOP (Roche, 04906845001, 1 tablet/10 mL) for 20 min lysis on ice then cleared via centrifugation at 16,000 × g, 4 °C for 20 min. […] Following clearance of lysates, protein concentrations were determined by the BCA assay (Fisher Scientific, 23225) or Bradford assay (Bio-rad). […]

T1 sequence (Q9WV60 whole entry): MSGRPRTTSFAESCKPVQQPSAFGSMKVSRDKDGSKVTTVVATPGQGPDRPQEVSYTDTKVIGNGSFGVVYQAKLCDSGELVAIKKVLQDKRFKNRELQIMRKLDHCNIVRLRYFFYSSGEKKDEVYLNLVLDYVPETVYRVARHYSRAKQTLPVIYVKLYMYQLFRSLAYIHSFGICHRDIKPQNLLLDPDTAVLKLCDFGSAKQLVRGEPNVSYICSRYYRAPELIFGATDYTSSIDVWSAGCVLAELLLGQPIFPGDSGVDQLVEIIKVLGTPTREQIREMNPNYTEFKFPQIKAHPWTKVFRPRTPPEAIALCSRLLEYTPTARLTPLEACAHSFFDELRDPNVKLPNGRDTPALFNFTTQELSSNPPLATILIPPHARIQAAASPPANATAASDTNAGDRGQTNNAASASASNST

For the molecule `Cn1nc(N2CCC(=O)NC2=O)c2ccc(CN3CCN(Cc4ccc(-c5cn(-c6ccc(-c7cn8nccc(C(=O)Nc9cnccc9N9CCOCC9)c8n7)cc6)nn5)nc4)CC3)cc21` [compound 24], the DC50 lay within 0.1 to 1 nM.

In general, DC50 refers to the concentration at which degradation of the target reaches its halfway point. Low values mean a more potent degrader, high ones a less potent degrader.

The values are drawn from article PMC12501029, “Discovery of a CNS active GSK3 degrader using orthogonally reactive linker screening” (Nature Communications, 2025).
